{"source": "patent US20210371827A1", "about": "“METHOD FOR PREPARING CANCER STEM CELL SPHEROIDS” (KOREA ADVANCED INSTITUTE OF SCIENCE AND TECHNOLOGY, priority 2018, published 2021)", "test_in_all_cases": "Cell viability for doxorubicin (WST-1)", "type_in_all_cases": "cell-based, human", "key": {"[1]": {"system": "ssiCSC (SKOV3, MCF-7, Hep3B and SW480)", "conditions": "50 μM, 24 hours; compared to the 2D control group", "method": "(§1) ssiCSC spheroids prepared from different kinds of cancer cells (SKOV3, MCF-7, Hep3B and SW480) were isolated using trypsin (TrypLE Express, Gibco), and the isolated cells were washed with D-PBS twice. The ssiCSC was plated on a 96-well plate (1×10^4 cells/well) and was cultured in a cell growth medium at 37° C. for 24 hours. Then, the medium was removed, and a new medium comprising various concentrations of doxorubicin was added to each well and cultured for 24 hours. Next, each well was washed with D-PBS and was replaced with a new cell growth medium of 100 μl, and then WST-1 cell proliferation reagent (Roche) of 10 μl was added and cultured for 4 hours. Then, the absorbance at 450 nm (standard wavelength, 600 nm) was measured using a microplate reader (Molecular Devices).\n(§2) In addition, the drug resistance of ssiCSC for doxorubicin (DOX) known as an anticancer agent was confirmed. Specifically, ssiCSC spheroids prepared by culturing on the pV4D4 surface for 8 days were isolated to single cells, and the cell was cultured on the conventional TCP surface to a 2D single layer, and then DOX at various concentrations was treated for 24 hours. […] The SW480-ssiCSC maintained drug resistance when subcultured on the TCP surface twice, and through this, it can be seen that original cancer cells were transformed into CSC-like cells (FIG. 12c)."}, "SW480-ssiCSC": {"system": "SW480-ssiCSC", "conditions": "various concentrations, 24 hours", "method": "as §1, §2"}, "SKOV3-ssiCSC": {"system": "SKOV3-ssiCSC", "conditions": "various concentrations, 24 hours", "method": "as §1, §2"}}, "data": [{"compound": "COc1cccc2c1C(=O)c1c(O)c3c(c(O)c1C2=O)C[C@@](O)(C(=O)CO)C[C@@H]3O[C@H]1C[C@H](N)[C@H](O)[C@H](C)O1", "note": "[Dox, doxorubicin]", "values": [{"measurement": "drug resistance (cell viability)", "setting": "[1]", "result": "higher resistance"}, {"measurement": "drug resistance (cell viability)", "setting": "SW480-ssiCSC", "result": "complete resistance"}, {"measurement": "drug resistance (cell viability)", "setting": "SKOV3-ssiCSC", "result": "complete resistance"}]}]}
